Laboratory results from ChEMBL document CHEMBL3813603, “Selective anti-malarial minor groove binders” (Bioorg Med Chem Lett, 2016).
pIC50: −log10 of the molar value.

Tests used:
[1] = test system: Plasmodium falciparum; test: Antimalarial activity against Plasmodium falciparum 3D7 incubated for 72 hours by DAPI-staining based confocal imaging analysis; assay type: functional, organism-based; conditions: for pIC50: Plasmodium falciparum, 3D7, 72 h, read-out: IC50
[2] = test system: Plasmodium falciparum; test: Antimalarial activity against Plasmodium falciparum Dd2 incubated for 72 hours by DAPI-staining based confocal imaging analysis; assay type: functional, organism-based; conditions: Dd2, 72 h
[3] = test system: HEK293; test: (§1) Cytotoxicity against HEK293 cells at 20 uM by alamar blue assay; assay type: cell-based; conditions: human, hek293, 20 µM
[4] = Therapeutic ratio of IC50 for HEK293 cells to IC50 for Plasmodium falciparum 3D7; assay type: cell-based; conditions: human, HEK293 cells versus Plasmodium falciparum 3D7; read-out: Ratio IC50
[5] = as §1; assay type: cell-based; conditions: human, HEK293 cells; read-out: INH
[6] = test system: HEK293; test: Cytotoxicity against HEK293 cells by alamar blue assay; assay type: cell-based; conditions: Homo sapiens
[7] = test system: Plasmodium falciparum; test: Antimalarial activity against Plasmodium falciparum Dd2 at 20 uM incubated for 72 hours by DAPI-staining based confocal imaging analysis; assay type: functional; conditions: Dd2, 72 h
[8] = Cytotoxicity against HEK293 cells at 10 uM by alamar blue assay; assay type: cell-based; conditions: human, read-out: INH
[9] = test system: Plasmodium falciparum; test: Antimalarial activity against Plasmodium falciparum 3D7 at 20 uM incubated for 72 hours by DAPI-staining based confocal imaging analysis; assay type: functional; conditions: 3D7, 72 h

Row | pIC50 [1] | pIC50 [2] | Compound | Activity [3] | selectivity ratio [4] | further results
1 | 7.41 | 7.42 | Cn1cc(NC(=O)c2cc(NC(=O)c3ccc(/C=C/c4nc5ccccc5o4)cc3)cn2C)cc1C(=O)NCCN1CCOCC1 | Non-toxic | > 514 | 
2 | 5.85 | 5.70 | CC(C)CCc1sc(NC(=O)c2cc(NC(=O)c3cc4ccccc4cn3)cn2C)nc1C(=O)NCCCN(C)C | Non-toxic |  | 
3 | 5.37 | 5.49 | Cn1cc(NC(=O)c2cc(NC(=O)c3cc4ccccc4cn3)cn2C)cc1C(=O)NCCN1CCOCC1 | Non-toxic |  | 
4 | 6.11 | 6.03 | Cn1cc(NC(=O)c2cc(NC(=O)c3ccc(/C=C/c4ccncc4)cc3)cn2C)cc1C(=O)NCCN1CCOCC1 |  | > 26 | cytotoxicity at 20 µM [5]: 63%
5 | 6.99 | 6.62 | CC(C)CCc1sc(NC(=O)c2cc(NC(=O)c3ccc(/C=C/c4ccc5ccccc5n4)cc3)cn2C)nc1C(=O)NCCN1CCOCC1 | Non-toxic |  | 
6 | 5.74 | 5.51 | Cn1cc(NC(=O)c2cc(NC(=O)c3cc(NC(=O)c4ccc(Cl)cc4Cl)cn3C)cn2C)cc1C(=O)NCCN1CCOCC1 | Non-toxic |  | 
7 | 6.49 | 6.54 | CC(C)CCc1sc(NC(=O)c2cc(NC(=O)c3cc(/C=C/c4ccc([N+](=O)[O-])cc4)cn3C)cn2C)nc1C(=O)NCCN1CCOCC1 |  | > 60 | cytotoxicity at 20 µM [5]: 54%
8 | 5.71 | 5.52 | COc1ccc(/C=C/c2ccc3cc(C(=O)Nc4cc(C(=O)Nc5cc(C(=O)NCCN6CCOCC6)n(C)c5)n(C)c4)ccc3n2)cc1 | Non-toxic |  | 
9 | 5.52 | 5.44 | Cn1cc(NC(=O)c2cc(NC(=O)c3cc(NC(=O)c4ccc(Cl)cc4Cl)cn3C)cn2C)cc1C(=O)NCCCN1CCOCC1 | Non-toxic |  | 
10 | 5.45 | 5.43 | Cn1cc(NC(=O)c2cc(NC(=O)c3ccc(/C=C/c4ccc(C(F)(F)F)cc4)cc3)cn2C)cc1C(=O)NCCN1CCOCC1 | Non-toxic |  | 
11 | 5.75 | 5.72 | CSc1ccc(/C=C/c2ccc3cc(C(=O)Nc4cc(C(=O)Nc5cc(C(=O)NCCN6CCOCC6)n(C)c5)n(C)c4)ccc3n2)cc1 | Non-toxic |  | 
12 | 6.06 | 5.94 | COc1cccc(/C=C/c2cccc(C(=O)Nc3cc(C(=O)Nc4nc(C(=O)NCCCN(C)C)c(CCC(C)C)s4)n(C)c3)c2)c1 |  | 6.7 | pIC50 [6]: 5.24
13 | 5.33 | 5.36 | CN(C)CCCNC(=O)c1cc(NC(=O)c2cc(NC(=O)c3cc4ccccc4cn3)cn2C)cn1C | Non-toxic |  | 
14 | 5.48 | 5.56 | Cn1cc(NC(=O)c2cc(NC(=O)c3ccc(/C=C/c4cccc(F)c4)cc3)cn2C)cc1C(=O)NCCN1CCOCC1 | Non-toxic |  | 
15 | 6.46 | 6.47 | CC(C)CCc1sc(NC(=O)c2cc(NC(=O)c3cc(/C=C/c4ccc([N+](=O)[O-])cc4)cn3C)cn2C)nc1C(=O)NCCCN(C)C |  | > 14 | cytotoxicity at 20 µM [5]: 60%
16 |  |  | COc1cccc(C(=N)Nc2cc(C(=O)Nc3cc(C(=O)Nc4cc(C(=O)NCCCN5CCOCC5)n(C)c4)n(C)c3)n(C)c2)c1 | Non-toxic |  | IC50 [1]: Not Active; inhibition at 20 µM [7]: 35%

Row | pIC50 [1] | pIC50 [2] | Compound | Activity [3] | selectivity ratio [4] | further results
17 | 5.47 | 5.56 | CN(C)CCCNC(=O)c1cc(NC(=O)c2cc(NC(=O)c3cc(NC(=N)c4cc5ccccc5cn4)cn3C)cn2C)cn1C |  |  | cytotoxicity at 10 µM [8]: 40%
18 | 5.10 | 5.22 | Cn1cc(NC(=O)c2cc(NC(=O)c3cc(NC(=O)c4cc5ccccc5cn4)cn3C)cn2C)cc1C(=O)NCCCN1CCOCC1 | Non-toxic |  | 
19 | 5.48 | 5.48 | Cn1cc(NC(=O)c2cc(NC(=O)c3ccc(/C=C/c4ccc(F)cc4)cc3)cn2C)cc1C(=O)NCCN1CCOCC1 | Non-toxic |  | 
20 |  |  | CC(C)n1cc(NC(=O)c2cc(NC(=O)c3cnc(Cl)c(Cl)c3)cn2C)cc1C(=O)Nc1cc(C(=O)NCCCN(C)C)n(C)c1 | Non-toxic |  | inhibition at 20 µM [9]: 75%; inhibition at 20 µM [7]: 65%
21 | 5.56 | 5.53 | COc1ccnc(C(=N)Nc2cc(C(=O)Nc3cc(C(=O)Nc4nc(C(=O)NCCN5CCOCC5)c(C(C)C)s4)n(C)c3)n(C)c2)c1 | Non-toxic |  | 
22 | 5.72 | 5.64 | Cn1cc(NC(=O)c2cc(NC(=O)c3ccc(/C=C/c4ccc5nonc5c4)cc3)cn2C)cc1C(=O)NCCN1CCOCC1 | Non-toxic |  | 
23 | 6.33 | 6.20 | CC(C)c1sc(NC(=O)c2cc(NC(=O)c3cc(NC(=O)c4cc5ccccc5cn4)cn3C)cn2C)nc1C(=O)NCCN1CCOCC1 | Non-toxic | > 42 | 
24 | 6.26 | 5.95 | COc1cccc(/C=C/c2ccc(C(=O)Nc3cc(C(=O)Nc4nc(C(=O)NCCCN(C)C)c(CCC(C)C)s4)n(C)c3)cc2)c1 |  | > 36 | cytotoxicity at 20 µM [5]: 86%
25 | 5.00 |  | COc1cccc(C(=N)Nc2cc(C(=O)Nc3cc(C(=O)Nc4cc(C(=O)NCCCN(C)C)n(C)c4)n(C(C)C)c3)n(C)c2)c1 | Non-toxic |  | inhibition at 20 µM [7]: 100%
26 |  |  | CCN(CC)CCCC(C)Nc1ccnc2cc(Cl)ccc12 (configuration not stated) [CHLOROQUINE] |  |  | pIC50 [6]: < 3.92
27 | 6.41 | 6.23 | CC(C)CCc1sc(NC(=O)c2cc(NC(=O)c3ccc(/C=C/c4ccc5ccccc5c4)cc3)cn2C)nc1C(=O)NCCN1CCOCC1 | Non-toxic | > 50 | 
28 | 5.26 | 5.35 | CN(C)CCCn1cnc(NC(=O)c2cc(NC(=O)c3cc(NC(=O)c4cc5ccccc5cn4)cn3C)cn2C)c1.O=C(O)C(F)(F)F | Non-toxic |  | 
29 |  |  | CN(C)CCCNC(=O)c1cc(NC(=O)c2cc(NC(=O)c3cc(NC(=N)c4ccccc4)cn3C)cn2C)cn1C | Non-toxic |  | inhibition at 20 µM [9]: 90%; inhibition at 20 µM [7]: 63%
30 | 5.22 | 5.29 | Cn1cc(NC(=O)c2cc(NC(=O)c3ccc(/C=C/c4ccc5nsnc5c4)cc3)cn2C)cc1C(=O)NCCN1CCOCC1 | Non-toxic |  | 
31 |  |  | Cn1cc(NC(=O)c2cc(NC(=O)c3cc(NC=O)cn3C)cn2C)cc1C(=O)NCCN1CCOCC1 | Non-toxic |  | inhibition at 20 µM [9]: 98%; inhibition at 20 µM [7]: 25%
32 | 5.19 | 5.19 | CC(=N)Nc1cc(C(=O)Nc2cc(C(=O)Nc3cc(C(=O)NCCCN(C)C)n(C)c3)n(C)c2)n(C)c1 | Non-toxic |  | 

Row | Compound | pIC50 [1] | pIC50 [2] | Activity [3] | selectivity ratio [4] | further results
33 | CCc1nc(N)nc(N)c1-c1ccc(Cl)cc1 [PYRIMETHAMINE] | 8.07 | < 6.92 |  | 955 | pIC50 [6]: 5.09
34 | C[C@@H]1CC[C@H]2[C@@H](C)C(=O)O[C@@H]3O[C@@]4(C)CC[C@@H]1[C@]32OO4 [ARTEMISININ] |  | 8.05 |  | > 10000 | pIC50 [6]: < 3.92
35 | COc1ccc(C[C@H](N)C(=O)N[C@H]2[C@@H](O)[C@H](n3cnc4c(N(C)C)ncnc43)O[C@@H]2CO)cc1 [PUROMYCIN] | 7.22 | 7.21 |  | 6 | 
